Data: ChEMBL document CHEMBL1201862, “PubChem BioAssay data set” (2004)
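Compound exposure: 48 hours, 5 concentrations, 96-well plates. GI50 marks 50% less growth.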 Calls of active or inactive are those of the source. Rule as the data show it: active = GI50 up to about 1.1 µM and inactive = higher.

Legend:
Experiment in all cases: inhibition of tumour cell growth, NCI panel, 48 h
786-0 = test system: 786-0
A498 = test system: A498
A549 = test system: A549
ACHN = test system: ACHN
BT-549 = test system: BT-549
CAKI-1 = test system: CAKI-1
CCRF-CEM = test system: CCRF-CEM
COLO 205 = test system: COLO 205
EKVX = test system: EKVX
HCC 2998 = test system: HCC 2998
HCT-116 = test system: HCT-116
HCT-15 = test system: HCT-15
HOP-62 = test system: HOP-62
HOP-92 = test system: HOP-92
IGROV-1 = test system: IGROV-1
K562 = test system: K562
KM12 = test system: KM12
LOX IMVI = test system: LOX IMVI
M14 = test system: M14
MCF7 = test system: MCF7
MDA-MB-231 = test system: MDA-MB-231
MDA-MB-435 = test system: MDA-MB-435
MDA-N = test system: MDA-N
MOLT-4 = test system: MOLT-4
Malme-3M = test system: Malme-3M
NCI-H226 = test system: NCI-H226
NCI-H23 = test system: NCI-H23
NCI-H460 = test system: NCI-H460
NCI-H522 = test system: NCI-H522
NCI/ADR-RES = test system: NCI/ADR-RES
OVCAR-3 = test system: OVCAR-3
OVCAR-4 = test system: OVCAR-4
OVCAR-5 = test system: OVCAR-5
OVCAR-8 = test system: OVCAR-8
PC-3 = test system: PC-3
RPMI-8226 = test system: RPMI-8226
RXF 393 = test system: RXF 393
SF-268 = test system: SF-268
SF-295 = test system: SF-295
SF-539 = test system: SF-539
SK-MEL-28 = test system: SK-MEL-28
SK-MEL-2 = test system: SK-MEL-2
SK-MEL-5 = test system: SK-MEL-5
SK-OV-3 = test system: SK-OV-3
SN12C = test system: SN12C
SNB-19 = test system: SNB-19
SNB-75 = test system: SNB-75
SR = test system: SR
SW-620 = test system: SW-620
T47D = test system: T47D
TK-10 = test system: TK-10
U-251 = test system: U-251
UACC-257 = test system: UACC-257
UO-31 = test system: UO-31
HL-60 = test system: HL-60
HT-29 = test system: HT-29
Hs-578T = test system: Hs-578T

CCCCCc1c(CCCC)c(O)nc2nc(NC(=O)CCCC)ccc12
GI50 (786-0): > 100 µM (inactive) | GI50 (A498): > 100 µM (inactive) | GI50 (A549): > 100 µM (inactive) | GI50 (ACHN): > 100 µM (inactive) | GI50 (BT-549): > 100 µM (inactive) | GI50 (CAKI-1): > 100 µM (inactive) | GI50 (CCRF-CEM): > 100 µM (inactive) | GI50 (COLO 205): > 100 µM (inactive) | GI50 (EKVX): > 100 µM (inactive) | GI50 (HCC 2998): > 100 µM (inactive) | GI50 (HCT-116): > 100 µM (inactive) | GI50 (HCT-15): > 100 µM | GI50 (HOP-62): > 100 µM (inactive) | GI50 (HOP-92): > 100 µM (inactive) | GI50 (IGROV-1): > 100 µM (inactive) | GI50 (K562): > 100 µM (inactive) | GI50 (KM12): > 100 µM (inactive) | GI50 (LOX IMVI): > 100 µM (inactive) | GI50 (M14): > 100 µM (inactive) | GI50 (MCF7): > 100 µM (inactive) | GI50 (MDA-MB-231): > 100 µM (inactive) | GI50 (MDA-MB-435): > 100 µM (inactive) | GI50 (MDA-N): > 100 µM (inactive) | GI50 (MOLT-4): > 100 µM (inactive) | GI50 (Malme-3M): > 100 µM (inactive) | GI50 (NCI-H226): > 100 µM (inactive) | GI50 (NCI-H23): > 100 µM (inactive) | GI50 (NCI-H460): > 100 µM (inactive) | GI50 (NCI-H522): > 100 µM (inactive) | GI50 (NCI/ADR-RES): > 100 µM (inactive) | GI50 (OVCAR-3): > 100 µM (inactive) | GI50 (OVCAR-4): > 100 µM (inactive) | GI50 (OVCAR-5): > 100 µM (inactive) | GI50 (OVCAR-8): > 100 µM (inactive) | GI50 (PC-3): > 100 µM (inactive) | GI50 (RPMI-8226): > 100 µM (inactive) | GI50 (RXF 393): > 100 µM (inactive) | GI50 (SF-268): > 100 µM (inactive) | GI50 (SF-295): > 100 µM (inactive) | GI50 (SF-539): > 100 µM (inactive) | GI50 (SK-MEL-28): > 100 µM (inactive) | GI50 (SK-MEL-2): > 100 µM (inactive) | GI50 (SK-MEL-5): > 100 µM (inactive) | GI50 (SK-OV-3): > 100 µM (inactive) | GI50 (SN12C): > 100 µM (inactive) | GI50 (SNB-19): > 100 µM (inactive) | GI50 (SNB-75): > 100 µM (inactive) | GI50 (SR): 51.9 µM (inactive) | GI50 (SW-620): > 100 µM (inactive) | GI50 (T47D): > 100 µM (inactive) | GI50 (TK-10): > 100 µM (inactive) | GI50 (U-251): > 100 µM (inactive) | GI50 (UACC-257): > 100 µM (inactive) | GI50 (UO-31): > 100 µM (inactive)

Cc1cc2c(cc1O)CC[C@@H]1[C@@H]2CC[C@]2(C)[C@@H](O)CC[C@@H]12
GI50 (786-0): 14.6 µM (inactive) | GI50 (A498): 18.7 µM (inactive) | GI50 (A549): 8.02 µM (inactive) | GI50 (ACHN): 18.9 µM (inactive) | GI50 (BT-549): 6.27 µM (inactive) | GI50 (CAKI-1): 16.9 µM (inactive) | GI50 (CCRF-CEM): 4.32 µM (inactive) | GI50 (COLO 205): 17.6 µM (inactive) | GI50 (HCC 2998): 11.4 µM (inactive) | GI50 (HCT-15): 4.08 µM | GI50 (HL-60): 1.73 µM (inactive) | GI50 (HOP-92): 14.9 µM (inactive) | GI50 (HT-29): 17.1 µM (inactive) | GI50 (Hs-578T): 2.51 µM (inactive) | GI50 (IGROV-1): 15.8 µM (inactive) | GI50 (K562): 2.58 µM (inactive) | GI50 (KM12): 4.52 µM (inactive) | GI50 (LOX IMVI): 11 µM (inactive) | GI50 (M14): 7.24 µM (inactive) | GI50 (MCF7): 8.85 µM (inactive) | GI50 (MDA-MB-231): 9.38 µM (inactive) | GI50 (MDA-N): 1.9 µM (inactive) | GI50 (MOLT-4): 3.68 µM (inactive) | GI50 (Malme-3M): 6.73 µM (inactive) | GI50 (NCI-H23): 13.6 µM (inactive) | GI50 (NCI-H460): 8.65 µM (inactive) | GI50 (NCI-H522): 7.45 µM (inactive) | GI50 (NCI/ADR-RES): 5.77 µM (inactive) | GI50 (OVCAR-4): 12.4 µM (inactive) | GI50 (OVCAR-5): 21.2 µM (inactive) | GI50 (OVCAR-8): 19.1 µM (inactive) | GI50 (PC-3): 11.1 µM (inactive) | GI50 (RPMI-8226): 4.74 µM (inactive) | GI50 (SF-268): 15.5 µM (inactive) | GI50 (SF-295): 6.08 µM (inactive) | GI50 (SK-MEL-28): 10.8 µM (inactive) | GI50 (SK-MEL-2): 5.48 µM (inactive) | GI50 (SK-MEL-5): 4.67 µM (inactive) | GI50 (SK-OV-3): 11.5 µM (inactive) | GI50 (SN12C): 13.3 µM (inactive) | GI50 (SNB-19): 12.6 µM (inactive) | GI50 (SNB-75): 5.43 µM (inactive) | GI50 (SR): 1.83 µM (inactive) | GI50 (SW-620): 4.28 µM (inactive) | GI50 (T47D): 19.3 µM (inactive) | GI50 (TK-10): 24 µM (inactive) | GI50 (U-251): 5.73 µM (inactive) | GI50 (UACC-257): 15.3 µM (inactive) | GI50 (UO-31): 14.8 µM (inactive)
